# Measured values: PubChem BioAssay (NCI)
#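 Each compound was tested at five concentrations against cells in 96-well plates for 48 hours. TGI marks complete inhibition of growth.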
# Columns and labels:
# Test in all cases: NCI-60 cell line screen, 48 h
# [1] = tested on: IGROV1 ovarian
# [2] = tested on: SF-539 CNS
# [3] = tested on: HL-60(TB) leukemia
# [4] = tested on: MALME-3M melanoma
# [5] = tested on: HOP-92 NSCLC
# [6] = tested on: HOP-18 NSCLC
# [7] = tested on: CAKI-1 renal
# [8] = tested on: UO-31 renal
# [9] = tested on: OVCAR-5 ovarian
# [10] = tested on: HOP-62 NSCLC
# [11] = tested on: 786-0 renal
# [12] = tested on: A498 renal
# [13] = tested on: SF-268 CNS
# [14] = tested on: RPMI-8226 leukemia
# [15] = tested on: UACC-62 melanoma
# [16] = tested on: LOX IMVI melanoma
# [17] = tested on: NCI-H23 lung
# [18] = tested on: SNB-75 CNS
# [19] = tested on: M14 melanoma
# [20] = tested on: HCT-116 colon
# [21] = tested on: LXFL 529 NSCLC
# [22] = tested on: KM20L2 colon
# [23] = tested on: SF-295 CNS
# [24] = tested on: DMS 273 small cell lung
# [25] = tested on: SR leukemia
# [26] = tested on: HCT-15 colon
# [27] = tested on: CCRF-CEM leukemia
# [28] = tested on: SW-620 colon
# [29] = tested on: NCI-H522 lung
# [30] = tested on: ACHN renal
# [31] = tested on: NCI-H460 lung
# [32] = tested on: DLD-1 colon
# [33] = tested on: NCI-H226 lung
# [34] = tested on: RXF 393 renal
# [35] = tested on: MOLT-4 leukemia
# [36] = tested on: A549 NSCLC
# [37] = tested on: U251 CNS
# [38] = tested on: OVCAR-3 ovarian
# [39] = tested on: KM12 colon
# [40] = tested on: SNB-19 CNS
# [41] = tested on: K-562 leukemia
# [42] = tested on: OVCAR-8 ovarian
# [43] = tested on: SK-MEL-28 melanoma
# [44] = tested on: XF 498 CNS
# [45] = tested on: SK-MEL-2 melanoma
# [46] = tested on: COLO 205 colon
# [47] = tested on: SNB-78 CNS
# [48] = tested on: OVCAR-4 ovarian
# [49] = tested on: HT29 colon
# [50] = tested on: TK-10 renal
# [51] = tested on: SN12C renal
# [52] = tested on: SK-MEL-5 melanoma
# [53] = tested on: UACC-257 melanoma
# [54] = tested on: HCC-2998 colon
# [55] = tested on: EKVX NSCLC
# [56] = tested on: SK-OV-3 ovarian
# [57] = tested on: M19-MEL melanoma
# [58] = tested on: DMS 114 small cell lung
compound,measurement,setting,value
Cc1ccc(C)c(NC(=O)CC/C(=N\NC(=O)c2c(O)ccc3ccccc23)C(C)C(=O)c2ccc(O)cc2)c1 (stereo not given),TGI,[1],> 100 µM
same,TGI,[2],80.5 µM
same,TGI,[3],> 100 µM
same,TGI,[4],90.2 µM
same,TGI,[5],> 100 µM
same,TGI,[6],83.8 µM
same,TGI,[7],> 100 µM
same,TGI,[8],> 100 µM
same,TGI,[9],> 100 µM
same,TGI,[10],> 100 µM
same,TGI,[11],> 100 µM
same,TGI,[12],> 100 µM
same,TGI,[13],> 100 µM
same,TGI,[14],> 100 µM
same,TGI,[15],34.3 µM
same,TGI,[16],39.6 µM
same,TGI,[17],91.3 µM
same,TGI,[18],> 100 µM
same,TGI,[19],41.4 µM
same,TGI,[20],> 100 µM
same,TGI,[21],> 100 µM
same,TGI,[22],30 µM
same,TGI,[23],> 100 µM
same,TGI,[24],> 100 µM
same,TGI,[25],90.3 µM
same,TGI,[26],> 100 µM
same,TGI,[27],71 µM
same,TGI,[28],> 100 µM
same,TGI,[29],42.6 µM
same,TGI,[30],84.6 µM
same,TGI,[31],> 100 µM
same,TGI,[32],> 100 µM
same,TGI,[33],98.8 µM
same,TGI,[34],> 100 µM
same,TGI,[35],> 100 µM
same,TGI,[36],> 100 µM
same,TGI,[37],> 100 µM
same,TGI,[38],89.2 µM
same,TGI,[39],> 100 µM
same,TGI,[40],> 100 µM
same,TGI,[41],> 100 µM
same,TGI,[42],75.9 µM
same,TGI,[43],> 100 µM
same,TGI,[44],91.9 µM
same,TGI,[45],> 100 µM
same,TGI,[46],51.3 µM
same,TGI,[47],> 100 µM
same,TGI,[48],> 100 µM
same,TGI,[49],> 100 µM
same,TGI,[50],> 100 µM
same,TGI,[51],> 100 µM
same,TGI,[52],> 100 µM
same,TGI,[53],87.1 µM
same,TGI,[54],> 100 µM
COc1cc(C2C(Cl)C(=O)N2NC(=O)c2ccc(N)cc2)ccc1O (stereo not given),TGI,[1],> 100 µM
same,TGI,[2],62.1 µM
same,TGI,[3],> 100 µM
same,TGI,[4],32.1 µM
same,TGI,[5],52.8 µM
same,TGI,[7],78.9 µM
same,TGI,[8],> 100 µM
same,TGI,[9],> 100 µM
same,TGI,[10],> 100 µM
same,TGI,[11],39.4 µM
same,TGI,[12],> 100 µM
same,TGI,[14],> 100 µM
same,TGI,[15],> 100 µM
same,TGI,[16],32.1 µM
same,TGI,[55],> 100 µM
same,TGI,[17],44.8 µM
same,TGI,[18],> 100 µM
same,TGI,[19],> 100 µM
same,TGI,[20],47.9 µM
same,TGI,[21],30.8 µM
same,TGI,[22],> 100 µM
same,TGI,[23],> 100 µM
same,TGI,[56],> 100 µM
same,TGI,[24],> 100 µM
same,TGI,[57],> 100 µM
same,TGI,[26],> 100 µM
same,TGI,[27],47.3 µM
same,TGI,[28],35.2 µM
same,TGI,[29],35 µM
same,TGI,[30],> 100 µM
same,TGI,[31],> 100 µM
same,TGI,[32],> 100 µM
same,TGI,[33],> 100 µM
same,TGI,[35],60.3 µM
same,TGI,[36],> 100 µM
same,TGI,[37],32 µM
same,TGI,[38],39 µM
same,TGI,[39],> 100 µM
same,TGI,[40],78.9 µM
same,TGI,[41],76.2 µM
same,TGI,[42],47.4 µM
same,TGI,[43],> 100 µM
same,TGI,[44],83.6 µM
same,TGI,[45],> 100 µM
same,TGI,[46],36.9 µM
same,TGI,[47],> 100 µM
same,TGI,[48],> 100 µM
same,TGI,[49],45.8 µM
same,TGI,[50],> 100 µM
same,TGI,[51],> 100 µM
same,TGI,[52],> 100 µM
same,TGI,[53],> 100 µM
same,TGI,[54],38 µM
CC(=O)C1C(=O)C(=O)N(c2ccccc2C(C)C)C1=O (stereo not given),TGI,[1],> 100 µM
same,TGI,[2],> 100 µM
same,TGI,[3],> 100 µM
same,TGI,[4],> 100 µM
same,TGI,[5],> 100 µM
same,TGI,[6],> 100 µM
same,TGI,[7],> 100 µM
same,TGI,[8],> 100 µM
same,TGI,[9],> 100 µM
same,TGI,[10],> 100 µM
same,TGI,[11],> 100 µM
same,TGI,[12],> 100 µM
same,TGI,[13],> 100 µM
same,TGI,[14],> 100 µM
same,TGI,[15],> 100 µM
same,TGI,[16],> 100 µM
same,TGI,[55],> 100 µM
same,TGI,[17],> 100 µM
same,TGI,[18],> 100 µM
same,TGI,[19],> 100 µM
same,TGI,[20],> 100 µM
same,TGI,[21],> 100 µM
same,TGI,[22],> 100 µM
same,TGI,[23],> 100 µM
same,TGI,[56],> 100 µM
same,TGI,[57],> 100 µM
same,TGI,[26],> 100 µM
same,TGI,[27],> 100 µM
same,TGI,[28],> 100 µM
same,TGI,[29],> 100 µM
same,TGI,[30],> 100 µM
same,TGI,[31],> 100 µM
same,TGI,[33],> 100 µM
same,TGI,[34],> 100 µM
same,TGI,[35],> 100 µM
same,TGI,[36],> 100 µM
same,TGI,[37],> 100 µM
same,TGI,[38],> 100 µM
same,TGI,[39],> 100 µM
same,TGI,[40],> 100 µM
same,TGI,[41],> 100 µM
same,TGI,[42],> 100 µM
same,TGI,[43],> 100 µM
same,TGI,[44],> 100 µM
same,TGI,[45],> 100 µM
same,TGI,[46],> 100 µM
same,TGI,[47],> 100 µM
same,TGI,[48],> 100 µM
same,TGI,[49],> 100 µM
same,TGI,[50],> 100 µM
same,TGI,[51],> 100 µM
same,TGI,[52],> 100 µM
same,TGI,[53],> 100 µM
same,TGI,[54],> 100 µM
COc1cc2c(cc1OC)C(Cl)C(c1ccc(Cl)c(Cl)c1)=C2Cl (stereo not given),TGI,[1],28.9 µM
same,TGI,[2],22.2 µM
same,TGI,[3],9.47 µM
same,TGI,[4],40.8 µM
same,TGI,[5],15.1 µM
same,TGI,[6],37 µM
same,TGI,[7],25.1 µM
same,TGI,[8],24.8 µM
same,TGI,[12],34 µM
same,TGI,[14],12.8 µM
same,TGI,[15],18.7 µM
same,TGI,[16],5.75 µM
same,TGI,[55],44.7 µM
same,TGI,[17],> 100 µM
same,TGI,[58],15.9 µM
same,TGI,[18],23.9 µM
same,TGI,[19],50.1 µM
same,TGI,[21],17.2 µM
same,TGI,[22],25.7 µM
same,TGI,[23],22 µM
same,TGI,[56],40.5 µM
same,TGI,[24],14.7 µM
same,TGI,[57],32.2 µM
same,TGI,[26],12.6 µM
same,TGI,[27],16.7 µM
same,TGI,[28],20 µM
same,TGI,[29],> 100 µM
same,TGI,[30],21.8 µM
same,TGI,[31],16 µM
same,TGI,[33],23.9 µM
same,TGI,[35],12.3 µM
same,TGI,[37],16.4 µM
same,TGI,[38],15.2 µM
same,TGI,[40],41.8 µM
same,TGI,[41],> 100 µM
same,TGI,[42],19.5 µM
same,TGI,[43],32.7 µM
same,TGI,[45],21.3 µM
same,TGI,[46],28 µM
same,TGI,[47],33.7 µM
same,TGI,[49],12.2 µM
same,TGI,[50],48.7 µM
same,TGI,[51],26.5 µM
same,TGI,[52],19.8 µM
